Where two headings read alike, the source gives them in different places.
Columns and labels:
EGFR Del19/T790M/C797S = EGFR Del19/T790M/C797S (Homo sapiens, UniProt P00533, C797S/DEL746-750/T790M); assay: Biochemical EGFR kinase inhibition assay (Lance Ultra TR-FRET), triple mutant del19/T790M/C797S
Summary of the method: (§1)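 Enzyme reactions lasted 1 hour at room temperature with test compounds between 0.003 and 10 μM, followed by 10 mM EDTA quench.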

EGFR Del19/C797S = EGFR Del19/C797S (Homo sapiens, UniProt P00533, C797S/DEL746-750); assay: Biochemical EGFR kinase inhibition assay (Lance Ultra TR-FRET), double mutant del19/C797S
Sequence of EGFR Del19/C797S (P00533 with tags, fused parts or gaps DEL746-750/C797S): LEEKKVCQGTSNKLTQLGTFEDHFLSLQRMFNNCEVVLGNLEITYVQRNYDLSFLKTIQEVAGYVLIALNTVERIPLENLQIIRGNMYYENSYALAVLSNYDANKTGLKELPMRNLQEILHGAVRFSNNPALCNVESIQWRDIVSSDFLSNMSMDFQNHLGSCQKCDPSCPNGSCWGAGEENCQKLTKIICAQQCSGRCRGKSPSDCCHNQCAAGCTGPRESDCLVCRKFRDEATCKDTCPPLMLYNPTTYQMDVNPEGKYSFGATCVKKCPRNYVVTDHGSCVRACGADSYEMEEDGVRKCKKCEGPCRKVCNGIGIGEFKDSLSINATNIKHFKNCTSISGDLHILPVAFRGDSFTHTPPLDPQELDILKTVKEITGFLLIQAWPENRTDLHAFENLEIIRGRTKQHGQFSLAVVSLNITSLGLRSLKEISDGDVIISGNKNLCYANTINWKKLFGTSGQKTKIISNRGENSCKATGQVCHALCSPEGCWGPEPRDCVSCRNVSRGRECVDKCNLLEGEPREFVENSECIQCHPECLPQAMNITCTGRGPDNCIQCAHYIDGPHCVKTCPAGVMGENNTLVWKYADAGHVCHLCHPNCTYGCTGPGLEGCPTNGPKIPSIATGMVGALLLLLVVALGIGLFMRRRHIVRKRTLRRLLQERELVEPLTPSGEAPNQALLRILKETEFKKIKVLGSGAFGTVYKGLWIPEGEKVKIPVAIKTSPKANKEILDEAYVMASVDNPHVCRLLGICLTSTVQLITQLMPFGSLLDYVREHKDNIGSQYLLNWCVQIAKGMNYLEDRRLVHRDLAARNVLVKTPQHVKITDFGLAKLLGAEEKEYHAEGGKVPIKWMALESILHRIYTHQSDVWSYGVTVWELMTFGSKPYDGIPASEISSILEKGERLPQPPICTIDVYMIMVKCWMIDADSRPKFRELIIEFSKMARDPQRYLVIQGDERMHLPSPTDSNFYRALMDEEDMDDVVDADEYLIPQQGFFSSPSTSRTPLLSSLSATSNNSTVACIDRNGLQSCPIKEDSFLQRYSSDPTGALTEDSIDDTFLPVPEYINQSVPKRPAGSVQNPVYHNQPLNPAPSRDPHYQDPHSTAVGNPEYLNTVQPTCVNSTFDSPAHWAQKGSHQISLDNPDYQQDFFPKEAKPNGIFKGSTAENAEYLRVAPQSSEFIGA
Summary of the method: as §1

EGFR L858R/C797S = EGFR L858R/C797S (Homo sapiens, UniProt P00533, C797S/L858R); assay: Biochemical EGFR kinase inhibition assay (Lance Ultra TR-FRET), double mutant L858R/C797S
Summary of the method: as §1

EGFR wildtype (WT) = EGFR wildtype (WT) (Homo sapiens, UniProt P00533); assay: Biochemical EGFR kinase inhibition assay (Lance Ultra TR-FRET), wildtype
Sequence of EGFR wildtype (WT) (P00533 25-1210): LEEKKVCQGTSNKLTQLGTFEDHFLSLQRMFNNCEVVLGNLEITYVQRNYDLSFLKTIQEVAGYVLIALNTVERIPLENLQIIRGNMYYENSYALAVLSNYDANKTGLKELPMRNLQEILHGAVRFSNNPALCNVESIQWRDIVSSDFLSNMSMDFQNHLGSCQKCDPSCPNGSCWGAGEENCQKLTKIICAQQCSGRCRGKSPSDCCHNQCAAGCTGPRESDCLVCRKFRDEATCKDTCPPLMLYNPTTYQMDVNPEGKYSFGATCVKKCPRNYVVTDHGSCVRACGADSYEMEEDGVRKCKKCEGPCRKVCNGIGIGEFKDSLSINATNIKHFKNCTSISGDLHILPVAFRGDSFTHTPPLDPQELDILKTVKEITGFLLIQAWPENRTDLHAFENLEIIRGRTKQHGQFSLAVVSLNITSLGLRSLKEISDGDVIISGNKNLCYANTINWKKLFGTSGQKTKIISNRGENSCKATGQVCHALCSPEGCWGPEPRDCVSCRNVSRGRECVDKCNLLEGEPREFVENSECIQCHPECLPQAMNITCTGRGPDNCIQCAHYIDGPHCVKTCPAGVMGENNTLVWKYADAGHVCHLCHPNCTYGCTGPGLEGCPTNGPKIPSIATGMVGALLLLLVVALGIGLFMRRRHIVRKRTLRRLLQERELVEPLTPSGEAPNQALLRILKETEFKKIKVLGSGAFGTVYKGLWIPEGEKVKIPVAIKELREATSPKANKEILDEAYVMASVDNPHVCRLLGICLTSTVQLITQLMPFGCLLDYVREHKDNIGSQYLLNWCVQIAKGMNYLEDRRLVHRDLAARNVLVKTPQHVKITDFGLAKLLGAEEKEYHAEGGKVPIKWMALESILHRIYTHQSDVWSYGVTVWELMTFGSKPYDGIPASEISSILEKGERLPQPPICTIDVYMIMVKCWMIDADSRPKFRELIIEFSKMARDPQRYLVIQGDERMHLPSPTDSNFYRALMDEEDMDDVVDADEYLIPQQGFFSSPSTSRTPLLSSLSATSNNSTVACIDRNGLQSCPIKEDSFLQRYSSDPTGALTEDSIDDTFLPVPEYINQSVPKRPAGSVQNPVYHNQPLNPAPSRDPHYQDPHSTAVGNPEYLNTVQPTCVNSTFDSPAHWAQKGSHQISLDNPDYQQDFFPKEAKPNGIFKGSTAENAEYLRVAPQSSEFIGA
Summary of the method: as §1

EGFR L858R/T790M/C797S = EGFR L858R/T790M/C797S (Homo sapiens, UniProt P00533, C797S/L858R/T790M); assay: Biochemical EGFR kinase inhibition assay (Lance Ultra TR-FRET), triple mutant L858R/T790M/C797S
Sequence of EGFR L858R/T790M/C797S (P00533 25-1210 T790M/C797S/L858R): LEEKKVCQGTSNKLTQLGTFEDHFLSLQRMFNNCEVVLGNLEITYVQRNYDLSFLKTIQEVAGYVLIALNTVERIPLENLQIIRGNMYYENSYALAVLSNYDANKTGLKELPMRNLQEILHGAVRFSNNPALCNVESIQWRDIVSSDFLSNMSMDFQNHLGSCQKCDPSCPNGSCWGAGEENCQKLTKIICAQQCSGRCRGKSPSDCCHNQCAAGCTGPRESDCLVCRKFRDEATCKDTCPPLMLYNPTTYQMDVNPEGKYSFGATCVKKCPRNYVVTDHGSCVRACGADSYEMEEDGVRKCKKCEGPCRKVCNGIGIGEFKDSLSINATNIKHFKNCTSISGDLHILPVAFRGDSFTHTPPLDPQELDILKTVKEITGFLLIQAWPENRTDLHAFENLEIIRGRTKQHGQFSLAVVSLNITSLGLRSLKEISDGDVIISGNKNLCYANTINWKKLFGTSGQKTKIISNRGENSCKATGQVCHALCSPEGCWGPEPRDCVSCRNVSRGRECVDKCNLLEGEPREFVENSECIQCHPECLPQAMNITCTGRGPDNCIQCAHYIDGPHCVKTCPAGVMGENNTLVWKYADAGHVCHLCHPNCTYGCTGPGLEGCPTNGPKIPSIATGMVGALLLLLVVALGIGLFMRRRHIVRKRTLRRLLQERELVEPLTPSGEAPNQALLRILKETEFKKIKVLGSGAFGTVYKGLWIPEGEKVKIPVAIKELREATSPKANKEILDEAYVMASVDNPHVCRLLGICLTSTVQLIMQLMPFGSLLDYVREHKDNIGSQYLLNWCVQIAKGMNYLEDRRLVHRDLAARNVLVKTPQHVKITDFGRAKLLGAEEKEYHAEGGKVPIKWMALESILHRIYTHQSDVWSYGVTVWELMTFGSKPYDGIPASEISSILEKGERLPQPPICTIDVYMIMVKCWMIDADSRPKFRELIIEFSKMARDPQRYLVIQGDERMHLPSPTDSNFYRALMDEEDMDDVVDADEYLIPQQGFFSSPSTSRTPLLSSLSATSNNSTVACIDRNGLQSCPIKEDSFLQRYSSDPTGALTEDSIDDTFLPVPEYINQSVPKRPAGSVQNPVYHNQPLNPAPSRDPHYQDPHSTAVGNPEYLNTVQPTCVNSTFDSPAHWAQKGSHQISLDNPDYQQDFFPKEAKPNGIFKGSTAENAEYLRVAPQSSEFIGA
Summary of the method: as §1

[1] = IC50 Del19/T790M/C797S (nM), 100 μM ATP
[2] = Km ATP, read-out: IC50 Del19/T790M/C797S (nM) Km ATP
[3] = IC50 Del19/C797S (nM), 100 μM ATP
[4] = Km ATP, read-out: IC50 Del19/C797S (nM) Km ATP
[5] = IC50 L858R/C797S (nM), 100 μM ATP
[6] = Km ATP, read-out: IC50 L858R/C797S (nM) Km ATP
[7] = Km ATP, read-out: IC50 WT (nM) Km ATP
[8] = IC50 L858R/T790M/C797S (nM), 100 μM ATP
[9] = Km ATP, read-out: IC50 L858R/T790M/C797S (nM) Km ATP
[10] = Km ATP, read-out: IC50 Del19/T790M/C797S (nM), Km ATP
[11] = Km ATP, read-out: IC50 Del19/C797S (nM), Km ATP
[12] = Km ATP, read-out: IC50 L858R/C797S (nM), Km ATP
[13] = Km ATP, read-out: IC50 WT (nM), Km ATP
[14] = Km ATP, read-out: IC50 L858R/T790M/C797S (nM), Km ATP

Sequence of EGFR Del19/T790M/C797S (P00533 with tags, fused parts or gaps DEL746-750/T790M/C797S): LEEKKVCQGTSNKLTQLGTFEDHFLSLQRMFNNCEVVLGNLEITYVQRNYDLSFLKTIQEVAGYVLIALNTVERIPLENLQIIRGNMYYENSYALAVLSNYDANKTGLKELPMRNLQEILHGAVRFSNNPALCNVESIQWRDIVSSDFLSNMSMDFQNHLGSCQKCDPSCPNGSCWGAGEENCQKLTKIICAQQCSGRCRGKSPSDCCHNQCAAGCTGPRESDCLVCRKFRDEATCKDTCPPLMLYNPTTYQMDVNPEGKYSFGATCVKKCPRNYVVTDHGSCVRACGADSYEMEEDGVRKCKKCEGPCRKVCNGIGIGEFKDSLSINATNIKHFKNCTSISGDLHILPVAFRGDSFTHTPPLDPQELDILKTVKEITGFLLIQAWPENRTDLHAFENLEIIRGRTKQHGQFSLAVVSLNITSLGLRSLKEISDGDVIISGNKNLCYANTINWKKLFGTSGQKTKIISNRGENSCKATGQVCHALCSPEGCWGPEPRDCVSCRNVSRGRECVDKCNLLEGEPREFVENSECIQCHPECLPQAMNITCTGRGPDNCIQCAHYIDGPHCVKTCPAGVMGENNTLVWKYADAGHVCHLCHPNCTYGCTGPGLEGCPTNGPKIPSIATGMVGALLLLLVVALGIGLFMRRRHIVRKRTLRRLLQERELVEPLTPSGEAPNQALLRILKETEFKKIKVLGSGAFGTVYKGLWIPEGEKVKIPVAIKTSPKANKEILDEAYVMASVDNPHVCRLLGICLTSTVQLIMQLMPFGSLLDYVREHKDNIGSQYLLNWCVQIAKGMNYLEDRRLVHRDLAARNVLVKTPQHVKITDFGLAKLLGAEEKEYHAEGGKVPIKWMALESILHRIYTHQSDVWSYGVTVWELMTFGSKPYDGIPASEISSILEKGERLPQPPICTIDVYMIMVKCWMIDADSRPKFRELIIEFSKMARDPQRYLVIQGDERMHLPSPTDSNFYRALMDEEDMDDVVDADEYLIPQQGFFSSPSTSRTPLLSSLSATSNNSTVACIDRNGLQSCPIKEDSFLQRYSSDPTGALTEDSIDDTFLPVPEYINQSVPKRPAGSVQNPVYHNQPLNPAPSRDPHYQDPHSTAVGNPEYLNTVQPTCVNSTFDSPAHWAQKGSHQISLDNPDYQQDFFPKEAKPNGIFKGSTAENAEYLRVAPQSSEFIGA

Row | SMILES | IC50 (EGFR Del19/T790M/C797S; [1]) [nM] | IC50 (EGFR Del19/T790M/C797S; [2]) [nM] | IC50 (EGFR Del19/C797S; [3]) [nM] | IC50 (EGFR Del19/C797S; [4]) [nM] | IC50 (EGFR L858R/C797S; [5]) [nM] | IC50 (EGFR L858R/C797S; [6]) [nM] | IC50 (EGFR wildtype (WT); IC50 WT (nM), 100 μM ATP) [nM] | IC50 (EGFR wildtype (WT); [7]) [nM] | IC50 (EGFR L858R/T790M/C797S; [8]) [nM] | IC50 (EGFR L858R/T790M/C797S; [9]) [nM] | IC50 (EGFR Del19/T790M/C797S; [10]) [nM] | IC50 (EGFR Del19/C797S; [11]) [nM] | IC50 (EGFR L858R/C797S; [12]) [nM] | IC50 (EGFR wildtype (WT); [13]) [nM] | IC50 (EGFR L858R/T790M/C797S; [14]) [nM] | IC50 (EGFR Del19/T790M/C797S; ATP at Km, read-out: IC50 Del19/T790M/C797S (nM), Km ATP) [nM] | IC50 (EGFR Del19/C797S; ATP at Km, read-out: IC50 Del19/C797S (nM), Km ATP) [nM] | IC50 (EGFR L858R/C797S; ATP at Km, read-out: IC50 L858R/C797S (nM), Km ATP) [nM] | IC50 (EGFR wildtype (WT); ATP at Km, read-out: IC50 WT (nM), Km ATP) [nM] | IC50 (EGFR L858R/T790M/C797S; ATP at Km, read-out: IC50 L858R/T790M/C797S (nM), Km ATP) [nM]
1 | Cn1ccc(C#Cc2cnc(Nc3ccnc(-c4cnn(S(=O)(=O)C5CC5)c4)n3)cc2N2CCC(NCCF)CC2)n1 [Example 141, 2-(1-(Cyclopropylsulfonyl)-1H-pyrazol-4-yl)-N-(4-(4-((2-fluoroethyl)amino)piperidin-1-yl)-5-((1-methyl-1H-pyrazol-3-yl)ethynyl)pyridin-2-yl)pyrimidin-4-amine] | 0.9 | 0.7 | 49.1 | 48.7 | 1900 | 13.7 | > 10000 | 256 | 3.4 | 0.7 | – | – | – | – | – | – | – | – | – | –
2 | O=S(=O)(C1CC1)n1cc(-c2nccc(Nc3cc(N4CCCC(CO)C4)c(C#Cc4cnn(C5CCOCC5)c4)cn3)n2)cn1 (stereo not drawn) [Example 100, (1-(2-((2-(1-(Cyclopropylsulfonyl)-1H-pyrazol-4-yl)pyrimidin-4-yl)amino)-5-((1-(tetrahydro-2H-pyran-4-yl)-1H-pyrazol-4-yl)ethynyl)pyridin-4-yl)piperidin-3-yl)methanol] | 1.6 | 1.7 | 12.9 | 10.7 | 73.9 | 7.1 | > 10000 | 62 | 5.6 | 1.3 | – | – | – | – | – | – | – | – | – | –
3 | Cn1cc(C#Cc2cnc(Nc3ccnc(-c4cnn(S(=O)(=O)C5CC5)c4)n3)cc2N2CCC(CO)C2)cn1 (stereo not drawn) [Example 33, (1-(2-((2-(1-(Cyclopropylsulfonyl)-1H-pyrazol-4-yl)pyrimidin-4-yl)amino)-5-((1-methyl-1H-pyrazol-4-yl)ethynyl)pyridin-4-yl)pyrrolidin-3-yl)methanol] | 1.9 | – | 10.2 | – | 152 | – | > 10000 | – | 3.7 | – | – | – | – | – | – | – | – | – | – | –
4 | O=S(=O)(C1CC1)n1cc(-c2nccc(Nc3cc(N4C[C@H]5C[C@@]5(CO)C4)c(C#Cc4cnn(C(F)(F)F)c4)cn3)n2)cn1 [Example 333, ((1 S,5S)-3-(2-((2-(1-(Cyclopropylsulfonyl)-1H-pyrazol-4-yl)pyrimidin-4-yl)amino)-5-((1-(trifluoromethyl)-1H-pyrazol-4-yl)ethynyl)pyridin-4-yl)-3-azabicyclo[3.1.0]hexan-1-yl)methanol] | 17.8 | – | 255 | – | > 10000 | – | > 10000 | – | 13 | – | 6.8 | 133 | 245 | 240 | 3.5 | – | – | – | – | –
5 | CN(C)CCCn1cc(C#Cc2cnc(Nc3ccnc(-c4cnn(S(=O)(=O)C5CC5)c4)n3)cc2N2CCC(F)(CO)CC2)cn1 [Example 121, (1-(2-((2-(1-(Cyclopropylsulfonyl)-1H-pyrazol-4-yl)pyrimidin-4-yl)amino)-5-((1-(3-(dimethylamino)propyl)-1H-pyrazol-4-yl)ethynyl)pyridin-4-yl)-4-fluoropiperidin-4-yl)methanol] | 0.3 | 0.3 | 0.5 | 0.3 | 4.1 | 0.3 | 783 | 3.1 | 0.3 | 0.1 | – | – | – | – | – | – | – | – | – | –
6 | CC(C)(O)[C@H]1CC[C@@H](Nc2cc(Nc3ccnc(-c4cnn(S(=O)(=O)C5CC5)c4)n3)ncc2C#Cc2cnn(CC(F)F)c2)CC1 [Example 325, 2-((1s,4s)-4-((2-((2-(1-(Cyclopropylsulfonyl)-1H-pyrazol-4-yl)pyrimidin-4-yl)amino)-5-((1-(2,2-difluoroethyl)-1H-pyrazol-4-yl)ethynyl)pyridin-4-yl)amino)cyclohexyl)propan-2-ol] | 1.1 | – | 6.9 | – | 89.8 | – | > 10000 | – | 2.1 | – | – | – | – | – | – | 0.9 | 6.2 | 16.3 | 115 | 0.8
7 | Cn1cc(C#Cc2cnc(Nc3ccnc(-c4cnn(S(=O)(=O)C5CC5)c4)n3)cc2N[C@H]2CCC[C@@H](O)C2)cn1 [Example 75, (1R,3S)-3-((2-((2-(1-(Cyclopropylsulfonyl)-1H-pyrazol-4-yl)pyrimidin-4-yl)amino)-5-((1-methyl-1H-pyrazol-4-yl)ethynyl)pyridin-4-yl)amino)cyclohexan-1-ol] | 1.6 | 1.8 | 5.7 | 3.8 | 104 | 2.6 | > 10000 | 45.6 | 1.8 | 0.8 | – | – | – | – | – | – | – | – | – | –
8 | CC(=O)N1CCC(n2cc(C#Cc3cnc(Nc4ccnc(-c5cnn(S(=O)(=O)C6CC6)c5)n4)cc3N3CCC(F)CC3)cn2)CC1 [Example 112, 1-(4-(4-((6-((2-(1-(Cyclopropylsulfonyl)-1H-pyrazol-4-yl)pyrimidin-4-yl)amino)-4-(4-fluoropiperidin-1-yl)pyridin-3-yl)ethynyl)-1H-pyrazol-1-yl)piperidin-1-yl)ethan-1-one] | 1.5 | 1.5 | 5.2 | 4.6 | 17.1 | 2.8 | > 10000 | 21.3 | 2.8 | 1.1 | – | – | – | – | – | – | – | – | – | –
9 | O=S(=O)(C1CC1)n1cc(-c2nccc(Nc3cc(N[C@H]4CC[C@@H](O)CC4)c(C#Cc4cnn(C5CCOCC5)c4)cn3)n2)cn1 [Example 94, (1s,4s)-4-((2-((2-(1-(Cyclopropylsulfonyl)-1H-pyrazol-4-yl)pyrimidin-4-yl)amino)-5-((1-(tetrahydro-2H-pyran-4-yl)-1H-pyrazol-4-yl)ethynyl)pyridin-4-yl)amino)cyclohexan-1-ol] | 2.1 | 2 | 8.8 | 6.7 | 30.5 | 4.3 | > 10000 | 32.3 | 3.6 | 1.4 | – | – | – | – | – | – | – | – | – | –

The remaining lines, values ahead:

Row | IC50 (EGFR Del19/T790M/C797S; [1]) [nM] | IC50 (EGFR Del19/T790M/C797S; [2]) [nM] | IC50 (EGFR Del19/C797S; [3]) [nM] | IC50 (EGFR Del19/C797S; [4]) [nM] | IC50 (EGFR L858R/C797S; [5]) [nM] | IC50 (EGFR L858R/C797S; [6]) [nM] | IC50 (EGFR wildtype (WT); IC50 WT (nM), 100 μM ATP) [nM] | IC50 (EGFR wildtype (WT); [7]) [nM] | IC50 (EGFR L858R/T790M/C797S; [8]) [nM] | IC50 (EGFR L858R/T790M/C797S; [9]) [nM] | IC50 (EGFR Del19/T790M/C797S; [10]) [nM] | IC50 (EGFR Del19/C797S; [11]) [nM] | IC50 (EGFR L858R/C797S; [12]) [nM] | IC50 (EGFR wildtype (WT); [13]) [nM] | IC50 (EGFR L858R/T790M/C797S; [14]) [nM] | IC50 (EGFR Del19/T790M/C797S; ATP at Km, read-out: IC50 Del19/T790M/C797S (nM), Km ATP) [nM] | IC50 (EGFR Del19/C797S; ATP at Km, read-out: IC50 Del19/C797S (nM), Km ATP) [nM] | IC50 (EGFR L858R/C797S; ATP at Km, read-out: IC50 L858R/C797S (nM), Km ATP) [nM] | IC50 (EGFR wildtype (WT); ATP at Km, read-out: IC50 WT (nM), Km ATP) [nM] | IC50 (EGFR L858R/T790M/C797S; ATP at Km, read-out: IC50 L858R/T790M/C797S (nM), Km ATP) [nM] | SMILES
10 | 0.4 | – | 2 | – | 6.4 | – | 1200 | – | 0.4 | – | 0.9 | 1.9 | 2.4 | 3.1 | 0.3 | – | – | – | – | – | COC1(O)CCN(c2cc(Nc3ccnc(-c4cnn(S(=O)(=O)C5CC5)c4)n3)ncc2C#Cc2ccc(CN3CCN(C)CC3)cc2)CC1 [Example 369, 1-(2-((2-(1-(Cyclopropylsulfonyl)-1H-pyrazol-4-yl)pyrimidin-4-yl)amino)-5-((4-((4-methylpiperazin-1-yl)methyl)phenyl)ethynyl)pyridin-4-yl)-4-methoxypiperidin-4-ol]
11 | 2.7 | – | 8.2 | – | 165 | – | > 10000 | – | 2.8 | – | 2.6 | 7.2 | 33.6 | 84.5 | 0.9 | – | – | – | – | – | O=S(=O)(C1CC1)n1cc(-c2nccc(Nc3cc(NC4CCC(CO)CC4)c(C#CC4CCOC4C(F)(F)F)cn3)n2)cn1 [Example 416, ((1s,4s)-4-((2-((2-(1-(Cyclopropylsulfonyl)-1H-pyrazol-4-yl)pyrimidin-4-yl)amino)-5-(((2R)-2-(trifluoromethyl)tetrahydrofuran-3-yl)ethynyl)pyridin-4-yl)amino)cyclohexyl)methanol]
12 | 2.6 | – | 8.4 | – | 104 | – | > 10000 | – | 3.9 | – | – | 7.9 | 3.9 | 62.7 | – | – | – | – | – | – | CC1(C#Cc2cnc(Nc3ccnc(-c4cnn(S(=O)(=O)C5CC5)c4)n3)cc2N[C@H]2CC[C@@H](CO)CC2)CC1 [Example 402, ((1s,4s)-4-((2-((2-(1-(Cyclopropylsulfonyl)-1H-pyrazol-4-yl)pyrimidin-4-yl)amino)-5-((1-methylcyclopropyl)ethynyl)pyridin-4-yl)amino)cyclohexyl)methanol]
13 | 0.2 | – | 2.9 | – | 66.6 | – | 8720 | – | 0.3 | – | 0.2 | 1.3 | 2 | 14.2 | 0.1 | – | – | – | – | – | CC1(O)CCN(c2cc(Nc3ccnc(-c4cnn(S(=O)(=O)C5CC5)c4)n3)ncc2C#CC2(F)CCOC2)CC1 (stereo not drawn) [Example 435, 1-(2-((2-(1-(Cyclopropylsulfonyl)-1H-pyrazol-4-yl)pyrimidin-4-yl)amino)-5-((3-fluorotetrahydrofuran-3-yl)ethynyl)pyridin-4-yl)-4-methylpiperidin-4-ol]

From patent US11981658B2, “Substituted aminopyridine compounds as EGFR inhibitors” (YUHAN CORPORATION, priority 2021, dated 2024)
